Measurements published in US20150320773A1, “TREATMENT OF INFLAMMATION” (Vascular Biogenics Ltd., priority 2011, published 2015).

How the values were obtained:
IL-1 receptor (IL-1R) = IL-1 receptor (IL-1R) (Mus musculus, UniProt P13504); settings: mouse BMDCs; 1.7, 8.5 or 17 μM
[1] = test system: G-coupled protein receprors (GPRC); experiment: Selectivity: effect on activity of additional proteins
12-LO (12-lipoxygenase) = 12-LO (12-lipoxygenase) (Homo sapiens, UniProt P18054); settings: concentrations of up to 10 μM; data not shown
Chain of 12-LO (12-lipoxygenase) (P18054 whole entry, species assumed): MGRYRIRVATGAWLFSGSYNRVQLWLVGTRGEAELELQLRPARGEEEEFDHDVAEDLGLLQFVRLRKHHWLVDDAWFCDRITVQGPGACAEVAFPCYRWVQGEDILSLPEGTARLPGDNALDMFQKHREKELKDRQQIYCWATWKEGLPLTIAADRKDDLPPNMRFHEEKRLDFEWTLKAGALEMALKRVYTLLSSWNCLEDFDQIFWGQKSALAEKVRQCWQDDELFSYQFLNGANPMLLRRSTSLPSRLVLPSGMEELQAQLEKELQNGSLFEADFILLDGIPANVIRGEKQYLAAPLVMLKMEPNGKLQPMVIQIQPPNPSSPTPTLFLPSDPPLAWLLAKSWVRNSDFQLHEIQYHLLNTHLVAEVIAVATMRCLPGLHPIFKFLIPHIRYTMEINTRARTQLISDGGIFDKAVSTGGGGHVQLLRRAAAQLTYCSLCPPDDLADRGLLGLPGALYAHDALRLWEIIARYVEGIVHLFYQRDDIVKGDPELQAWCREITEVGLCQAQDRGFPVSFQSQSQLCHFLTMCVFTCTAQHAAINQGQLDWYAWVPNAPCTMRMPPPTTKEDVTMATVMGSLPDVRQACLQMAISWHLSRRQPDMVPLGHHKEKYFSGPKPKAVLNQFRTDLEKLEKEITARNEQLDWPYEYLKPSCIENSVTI

chemokine receptors = experiment: GPCR activation assay, agonist mode (calcium flux); type: cell-based; settings: 12.5 μM VB-201; ChemiScreen stable cell lines
Description: Analyses were performed by Millipore GPCR Profiler Service, by measuring intracellular calcium signal in real time using FLIPR^TETRA device. […] Antagonist percentage inhibition was referenced to EC80 control wells for each tested GPCR.

[2] = test system: kinases, phosphatases, ion channels/ransporters; experiment: Selectivity: effect on activity of additional proteins
THP-1 cells = experiment: AKT and ERK pathway activation in THP-1 cells, Western blot; settings: 8.5 μM VB-201, 20 min
Description: THP-1 cells were incubated for 16 hrs in RPMI-1640 medium supplemented with 0.5% FBS and 1% Pen/Strep/Glutamine to reduce basal signaling readouts. […] Stimulation with 100 μM GTP-γ-s, an activator of G-proteins, was performed for 2, 5 or 15 minutes. Cells were harvested and analyzed by SDS-PAGE. […] Total ERK1/2 levels serve as loading control.
The THP1 or HEK293 cell lines were grown in medium supplemented with 0.5% FBS and 1% Pen/Strep/Glutamine. […] Cells were washed twice and harvested with lysis buffer and analyzed by SDS-PAGE. […] Alpha Tubulin levels serve as loading control.
THP-1 cells were incubated for 16 hrs in RPMI-1640 medium supplemented with 0.5% FBS and 1% Pen/Strep/Glutamine to reduce basal signaling readouts. […] Stimulation with 30 μg/ml of CRP, activator the CD32 and CD64 receptors, was performed for 2, 5 or 15 min. Cells were harvested and analyzed by SDS-PAGE. […] Total ERK1/2 levels serve as loading control.

[3] = molecular target: TLR2:TLR1 dimer, TLR2:TLR6 dimer (Mus musculus, UniProt Q9QUN7); settings: 1.7, 8.5 or 17 μM
Chain of TLR2:TLR1 dimer, TLR2:TLR6 dimer (Q9QUN7 25-784): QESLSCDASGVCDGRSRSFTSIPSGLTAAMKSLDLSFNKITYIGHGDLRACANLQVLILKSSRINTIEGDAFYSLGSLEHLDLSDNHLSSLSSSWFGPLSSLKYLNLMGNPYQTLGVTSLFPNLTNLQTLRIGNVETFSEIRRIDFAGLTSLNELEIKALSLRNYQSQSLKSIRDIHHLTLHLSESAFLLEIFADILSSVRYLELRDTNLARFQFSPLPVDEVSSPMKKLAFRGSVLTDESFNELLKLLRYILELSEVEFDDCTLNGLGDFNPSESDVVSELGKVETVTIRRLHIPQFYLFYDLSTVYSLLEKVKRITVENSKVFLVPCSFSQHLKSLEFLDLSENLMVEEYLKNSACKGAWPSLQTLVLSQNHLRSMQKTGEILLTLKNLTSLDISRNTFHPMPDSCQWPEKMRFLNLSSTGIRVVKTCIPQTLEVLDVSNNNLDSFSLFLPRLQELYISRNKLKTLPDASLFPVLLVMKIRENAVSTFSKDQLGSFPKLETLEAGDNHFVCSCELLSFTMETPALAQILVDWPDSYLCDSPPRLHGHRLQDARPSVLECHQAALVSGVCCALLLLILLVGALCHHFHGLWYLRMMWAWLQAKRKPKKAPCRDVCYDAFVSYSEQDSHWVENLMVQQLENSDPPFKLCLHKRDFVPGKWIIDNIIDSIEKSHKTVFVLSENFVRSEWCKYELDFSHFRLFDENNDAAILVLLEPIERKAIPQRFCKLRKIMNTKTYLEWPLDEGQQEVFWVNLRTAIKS

[4] = test system: phosphorylation of Akt, MEK1/2, ERK1/2 and p38 in human monocytes; experiment: Chemokine-induced signaling in human monocytes, Western blot
Description: Untreated cells were used as reference for MCP-1 activation. Following treatment, cells were washed twice, harvested with lysis buffer and analyzed by SDS-PAGE. […] Alpha Tubulin levels serve as loading control.

ApoE KO mice = experiment: Atherosclerosis study in ApoE KO mice
Description: Dosing was performed once a day, for 8 weeks (n=1-12/group). […] Lesion area was calculated using a computerized analysis method (Image Pro Plus software, V. 4.5.1.29, Medical Cybernetics Corporation). Aorta lesion area was determined using the Image-Pro Plus software, which measured the staining area covered by Sudan IV stain adhering to the lesioned tissue. Lesion size in the aorta was measured and the percentage of lesioned area was calculated relative to the size of the entire aorta.
Immunostaining was performed on frozen sections which were fixed with cold acetone and blocked with 4% normal rabbit serum/PBS (Vector Lab). Following incubation with Rat anti-mouse CD68 (Serotec NCA1957; 1:250) and anti-Rat biotinylated antibody (Vector Lab AB-4001; 1:200), signal was developed using Vectastain ABC-Alkaline phosphatase kit and Vector Red Substrate (Vector Lab). Mayer's Hematoxylin was used for counterstaining.

[5] = test system: NIH-3T3 mouse fibroblasts; experiment: Wound-healing 'scratch' assay; type: cell-based; settings: data not shown
granulocytes = experiment: Phagocytosis assay (whole blood), granulocytes; type: cell-based, human; settings: VB-201 doses of 5 or 10 µg/ml
Description: Phagocytosis assays were conducted using pHrodo™ Phagocytosis Particle Labeling Kit (Invitrogen) according to the manufacturer protocol. […] Then, pHrodo dye-labeled E. coli bacteria were mixed with the treated blood samples, in 20:1 ratio of pHrodo™ particles to phagocytosing cells and incubated for additional 15 minutes. Each sample was analyzed both at 4° C. (no phagocytosis, negative control) and 37° C. Following incubation, red blood cells were removed by lysis and the samples were washed 3 times with wash buffer. For gating on specific subpopulations, cells were labeled with anti-CD14-FITC (monocytes and granulocytes marker, BD Biosciences) and anti-CD66b-PerCP/Cy5.5 (granulocytes marker, BioLegend) antibodies. pHrodo fluorescence intensity was analyzed by FACS.
To this end, a phagocytosis assay was performed on whole blood from healthy donors, and the capacity of leukocyte subsets to phagocytose PE-labeled E. Coli particles was tested in presence or absence of VB-201. As a negative control, we used blood without bacterial particles, while a positive control included blood and labeled-bacterial particles incubated at 37° C. Cells were then stained with CD14 and CD66b antibodies to differentiate between monocytes and granulocytes and were analyzed by FACS.

TLR4 = TLR4 (Homo sapiens, UniProt O00206); settings: human monocytes; LPS; 1.7, 8.5 or 17 μM
Chain of TLR4 (O00206 24-839): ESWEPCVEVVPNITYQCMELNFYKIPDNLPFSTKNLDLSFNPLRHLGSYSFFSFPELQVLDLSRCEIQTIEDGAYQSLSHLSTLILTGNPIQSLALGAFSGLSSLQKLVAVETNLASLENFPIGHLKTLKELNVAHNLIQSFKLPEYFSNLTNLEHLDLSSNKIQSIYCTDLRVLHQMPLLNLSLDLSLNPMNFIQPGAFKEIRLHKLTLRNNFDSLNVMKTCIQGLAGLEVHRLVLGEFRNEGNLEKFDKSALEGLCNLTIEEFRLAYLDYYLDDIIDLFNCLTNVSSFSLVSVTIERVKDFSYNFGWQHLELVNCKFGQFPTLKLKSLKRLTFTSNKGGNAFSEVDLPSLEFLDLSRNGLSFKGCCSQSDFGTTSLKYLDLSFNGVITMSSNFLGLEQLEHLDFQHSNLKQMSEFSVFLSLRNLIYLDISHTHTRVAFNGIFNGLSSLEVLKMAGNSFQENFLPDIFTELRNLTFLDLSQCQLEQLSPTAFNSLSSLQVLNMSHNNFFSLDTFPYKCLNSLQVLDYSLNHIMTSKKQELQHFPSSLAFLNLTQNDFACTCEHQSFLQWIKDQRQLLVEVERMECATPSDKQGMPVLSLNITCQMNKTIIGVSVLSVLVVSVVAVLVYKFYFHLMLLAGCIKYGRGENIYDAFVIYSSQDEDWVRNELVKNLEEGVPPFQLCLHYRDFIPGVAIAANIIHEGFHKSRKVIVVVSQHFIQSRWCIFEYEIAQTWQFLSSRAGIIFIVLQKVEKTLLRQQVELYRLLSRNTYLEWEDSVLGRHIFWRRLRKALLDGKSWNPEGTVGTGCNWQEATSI
Chain of TLR4 (Q9Y6Y9 17-160 partner limits assumed): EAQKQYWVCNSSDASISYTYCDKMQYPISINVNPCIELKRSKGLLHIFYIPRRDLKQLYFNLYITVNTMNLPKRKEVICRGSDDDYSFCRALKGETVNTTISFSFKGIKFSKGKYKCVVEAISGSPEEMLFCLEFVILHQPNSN

TLR7 = TLR7 (Mus musculus, UniProt P58681); settings: mouse BMDCs; R848; 1.7, 8.5 or 17 μM
Chain of TLR7 (P58681 27-1050): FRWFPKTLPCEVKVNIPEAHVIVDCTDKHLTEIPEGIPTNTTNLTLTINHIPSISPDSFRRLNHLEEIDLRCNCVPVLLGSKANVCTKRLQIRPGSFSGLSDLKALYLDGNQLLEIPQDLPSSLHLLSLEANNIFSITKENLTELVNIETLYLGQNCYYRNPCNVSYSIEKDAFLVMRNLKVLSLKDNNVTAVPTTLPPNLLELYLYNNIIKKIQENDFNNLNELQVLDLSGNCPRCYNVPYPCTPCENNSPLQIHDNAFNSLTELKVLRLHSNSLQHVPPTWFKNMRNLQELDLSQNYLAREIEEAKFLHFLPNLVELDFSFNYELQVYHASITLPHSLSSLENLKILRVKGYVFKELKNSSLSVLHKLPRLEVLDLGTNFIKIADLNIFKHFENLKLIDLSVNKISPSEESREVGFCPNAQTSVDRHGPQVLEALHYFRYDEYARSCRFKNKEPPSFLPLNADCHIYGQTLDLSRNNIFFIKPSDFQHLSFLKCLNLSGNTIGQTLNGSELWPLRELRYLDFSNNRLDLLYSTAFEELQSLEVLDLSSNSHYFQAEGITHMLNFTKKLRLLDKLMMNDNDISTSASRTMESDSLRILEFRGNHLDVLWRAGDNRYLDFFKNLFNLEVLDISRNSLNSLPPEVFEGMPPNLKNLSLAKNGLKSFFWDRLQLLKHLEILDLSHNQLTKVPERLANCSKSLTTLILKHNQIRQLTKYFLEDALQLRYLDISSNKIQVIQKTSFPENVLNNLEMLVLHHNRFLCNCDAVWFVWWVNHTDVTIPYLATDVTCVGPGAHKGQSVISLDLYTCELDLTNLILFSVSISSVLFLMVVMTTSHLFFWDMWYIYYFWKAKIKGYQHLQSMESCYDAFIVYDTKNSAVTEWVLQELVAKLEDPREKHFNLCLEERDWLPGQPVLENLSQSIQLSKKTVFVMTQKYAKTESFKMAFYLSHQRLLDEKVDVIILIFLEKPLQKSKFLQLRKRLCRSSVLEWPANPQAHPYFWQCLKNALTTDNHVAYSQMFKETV

[6] = test system: phosphorylation of Akt, MEK1/2, ERK1/2 and p38 in human monocytes; settings: stimulation with MCP-1, MIP-1α or RANTES; shown in WO 2011/083469; cited from earlier work
[7] = 5 μg/ml VB-201, MCP-1 and MCP-3-stimulated cells

Chain of IL-1 receptor (IL-1R) (P13504 20-576): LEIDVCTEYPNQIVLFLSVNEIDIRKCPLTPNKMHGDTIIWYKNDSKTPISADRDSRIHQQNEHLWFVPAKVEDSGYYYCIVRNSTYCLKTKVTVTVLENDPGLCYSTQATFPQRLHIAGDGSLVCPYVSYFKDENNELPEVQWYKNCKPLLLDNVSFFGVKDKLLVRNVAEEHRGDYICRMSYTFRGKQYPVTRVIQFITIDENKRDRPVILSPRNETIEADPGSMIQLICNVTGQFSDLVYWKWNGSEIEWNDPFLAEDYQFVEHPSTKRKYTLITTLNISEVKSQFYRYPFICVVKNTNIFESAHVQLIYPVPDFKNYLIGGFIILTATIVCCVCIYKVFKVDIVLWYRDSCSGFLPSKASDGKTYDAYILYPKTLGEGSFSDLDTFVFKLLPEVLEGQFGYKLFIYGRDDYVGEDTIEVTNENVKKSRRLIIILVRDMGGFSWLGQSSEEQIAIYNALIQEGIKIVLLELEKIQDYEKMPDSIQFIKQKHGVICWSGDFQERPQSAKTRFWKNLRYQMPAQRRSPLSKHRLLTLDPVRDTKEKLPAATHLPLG

CCCCCCCCCCCCCCCCOC[C@H](COP(=O)([O-])OCC[N+](C)(C)C)OCCCCC(=O)O [VB-201, (R)-1-hexadecyl-2-(4′-carboxyl)butyl-sn-glycero-3-phosphocholine]
p38 phosphorylation following activation of IL-1 receptor (IL-1 receptor (IL-1R)): no apparent effect
agonistic or antagonistic effect on G-coupled protein receprors (GPRC) [1]: no agonistic or antagonistic effect
inhibition of 12-LO (12-lipoxygenase) (12-LO (12-lipoxygenase)): No inhibition
activation relative to positive controls (agonist, Ca++ flux) (chemokine receptors): less than 5%
inhibition of kinases, phosphatases, ion channels/ransporters [2]: No inhibition
phospho-AKT(Ser473) levels (THP-1 cells; 30 μg/ml CRP): reduction in phospho-ERK1/2 and phospho-AKT(Ser473) levels
phospho-ERK1/2 levels (THP-1 cells; 30 μg/ml CRP): reduction in phospho-ERK1/2 and phospho-AKT(Ser473) levels
phospho-AKT(Ser473) levels (THP-1 cells; 100 μM GTP-γ-s): reduction in phospho-ERK1/2 and phospho-AKT (Ser473) levels
phospho-ERK1/2 levels (THP-1 cells; 100 μM GTP-γ-s): reduction in phospho-ERK1/2 and phospho-AKT (Ser473) levels
EGF-induced ERK1/2 phosphorylation (THP-1 cells; EGF 200 ng/ml): inhibition of ERK1/2 phosphorylation in the THP-1 monocytic cell line
p38 phosphorylation following activation of dimers of TLR2 ([3]; mouse BMDCs, Pam3CSK4, PGN): inhibited p^38 phosphorylation in a dose-dependent manner
activation of p38, ERK1/2 and the NFκB pathway following activation of TLR2:TLR1 dimer ([3]; mouse peritoneal macrophages, Pam3CSK4): inhibited activation of p38, ERK1/2 and the NFκB pathway in a dose-dependent manner
ERK1/2 phosphorylation in stimulated monocytes ([4]; 50 ng/ml RANTES): inhibited ERK1/2 phosphorylation
phosphorylation levels of ERK1/2 ([4]; 5 μg/ml VB-201, Fractalkine-stimulated cells): considerable reduction
phosphorylation levels of Akt [4, 7]: considerable reduction
phosphorylation levels of ERK1/2 [4, 7]: considerable reduction
phosphorylation levels of MEK1/2 [4, 7]: considerable reduction
phosphorylation levels of p38 [4, 7]: but not in phosphorylation levels of p38
ERK1/2 phosphorylation in monocytes pre-stimulated with MCP-1 overnight ([4]; 8.5 μM VB-201 for 2, 5 or 15 min, 10 ng/ml MCP-1, 16 hrs): reduction of ERK1/2 phosphorylation in starting at 5 min
plaque formation relative to the PBS control (ApoE KO mice; 1.5 mg/kg, daily oral gavage, 8 weeks): significantly reduced plaque formation
fatty streaks (ApoE KO mice; daily oral gavage, 8 weeks, 0.15 or 1.5 mg/kg): markedly reduced
macrophage accumulation in the aortic sinus lesion (anti-CD68) (ApoE KO mice; relative to controls): reduced
cell migration in wound-healing scratch assay [5]: no effect on cell migration
granulocyte phagocytosis (granulocytes): no VB-201 effect was seen
activation of p38, ERK1/2 and the NFκB pathway following activation of TLR4 (TLR4): inhibited activation of p38, ERK1/2 and the NFκB pathway in a dose-dependent manner
p38 phosphorylation following activation of TLR7 (TLR7): no apparent effect
ERK1/2 phosphorylation and MEK1/2 phosphorylation [6]: inhibition by VB-201 of ERK1/2 phosphorylation and MEK1/2 phosphorylation
